We go through 3 compounds from patent US10357480B2, “Biotin for treating peripheral demyelinating neuropathy” (MedDay Pharmaceuticals, priority 2015, dated 2019).

In series [1] the test system is CMT1A. The note with it: six clinical trials, 1- or 2-year AA treatment; cited from earlier work.
For series [2], the system named is IgM anti-MAG demyelinating neuropathy. The note with it: controlled trial (Léger et al, 2013); cited from earlier work.
In series [3] the test system is patient suffering from ALS. Briefly: Treatment of a patient suffering from ALS with high doses biotin (case report). Format: in vivo, human. As to the method: Treatment with biotin 100 mg three times a day was started the 11 Sep. 2015. […] All these medications were introduced at least 6 months before.
For series [4], the system named is patients with demyelinating Charcot Marie Tooth (CMT) disease. Briefly: Treatment of patients with demyelinating Charcot Marie Tooth disease, 6 minutes walking test. In kind it is in vivo, human. As to the method: Two patients with demyelinating Charcot Marie Tooth (CMT) disease were treated with biotin 300 mg/day. • A patient with CMT1a was treated with high doses of biotin (100 mg three times a day). No other treatment was introduced. The patient was followed clinically using a 6 minutes walking test. After 9 months of treatment the maximum walking distance was improved by 100 meters. • A person with CMT1E (a rare form of demyelinating CMT with hearing loss) was treated with high doses biotin (100 mg three times a day). No other drug was introduced.

Series [5] relates to patients diagnosed with Neuromyelitis optica. The experiment in a line: Treatment of patients with neuromyelitis optica, visual acuity and motor strength. Format: in vivo, human. The note with it: for visual acuity right: 0/10 at onset; for visual acuity left: 9/10 at onset. From the text:
Biotin can be used for treatment of neuromyelitis optica, using the same kind of regimen as disclosed in Examples 1 and 4.
Endpoint would be partial recovery and improvement of vision or of motor strength. Three patients will be treated and assessed every 6 months with measures of visual acuity (VA) and clinical examination including motor strength testing. Results will be considered positive in case of improvement of VA of at least 5 letters associated with any improvement of motor strength.
Results: • Patient 1: this person was diagnosed with Neuromyelitis optica. First episode of right optic neuritis occurred in 2006. This was followed by an attack of tetraplegia in 2009 with positive anti-NMO antibodies. […] The patient could not walk. Treatment with biotin (100 mg three times a day) was started. […] Treatment with biotin (100 mg three times a day) was introduced. At that time the patient was treated with monthly perfusions of cyclophosphamide. Visual acuity was 0/10 right and 9/10 left. After 4 months of treatment with biotin, visual acuity was 1/10 right and 6/10 left. After 18 months of treatment, visual acuity was 2/10 right and 8/10 left. It was concluded that treatment with biotin improved the right visual acuity.

The conditions of series [6]: in vivo; cited from earlier work.
Setting [7] is: biotin 100 mg three times a day.

As to `O=C1O[C@H]([C@@H](O)CO)C(O)=C1O` [Ascorbic acid], the clinical benefit result in series [1] was “no clinical benefit”.
On to Rituximab: monoclonal antibody, for which the patients condition result in series [2] is “didn't really improve”.
For the compound `O=C(O)CCCC[C@@H]1SC[C@@H]2NC(=O)N[C@@H]21` [biotin, Biotin], in series [3] (after 6 months of treatment, dependent on ventilator 24 hours a day at beginning), the “time the patient could switch off the medical ventilator” value is reported as 4 hours a day. In series [3] (setting [7]), the disability result is “some stabilization of its disability”. The “weight of the patient” value in series [3] (setting [7]) is “slightly increased”. The “muscle atrophy in lower extremities” value in series [3] (biotin 100 mg three times a day, after 3 and 6 months, better exercise tolerance during physical therapy) is on record as “some improvement”. Further, in series [3] (biotin 100 mg three times a day, after 3 and 6 months, concomitant riluzole and other medications), the “limbs weakness and swallowing” value is “stabilization”. For the same compound, the “6 minutes walk test” value in series [4] (CMT1E patient, after 9 months, 396 meters at onset) amounted to 490 meters; in series [4] (CMT1E patient, after 12 months, 396 meters at onset), 480 meters; in series [4] (CMT1E patient, after 18 months, 396 meters at onset), 483 meters; in series [4] (CMT1E patient, after 24 months, 396 meters at onset), 580 meters; in series [4] (person with CMT1E, biotin 100 mg three times a day, after 3 months, 396 meters at treatment's onset), 515 meters. In addition, in series [4] (patient with CMT1a, biotin 100 mg three times a day, after 9 months), the “improvement of maximum walking distance, 6 minutes walking test” value is on record as 100 meters. For the same compound, the “strength in the right lower limb” value in series [5] (NMO Patient 1, after 9 months) is given as “better strength”. In addition, in series [5] (NMO Patient 1, after 24 months, could not walk at onset), the walking ability result is “walk with two aids and the help of the physical therapist”. The tolerability of treatment result in series [5] (NMO Patient 1, biotin 100 mg three times a day, 24 months) is given as “very well tolerated”. In series [5] (NMO Patient 1, biotin 100 mg three times a day, after three months, confirmed after 9 months), the right hand movements result is on record as “some improvement”. In addition, the visual acuity right in series [5] (NMO Patient 2, after 4 months of biotin 100 mg three times a day, monthly cyclophosphamide) is reported as 1/10; in series [5] (NMO Patient 2, after 18 months), 2/10. Moreover, the visual acuity left in series [5] (NMO Patient 2, after 4 months) was 6/10; in series [5] (NMO Patient 2, after 18 months) it was 8/10. In addition, in series [6], the plasma half life entry is reported as “about 2 hours”.
